From BindingDB's records for doi:10.1016/s0196-9781(99)00098-4 (Uppsala University, 1999)

How the values were obtained:
[1] = biological target: T1, Neuropeptide Y receptor type 1 (Cavia porcellus, UniProt Q9WVD0)
T1 sequence (Q9WVD0 whole entry): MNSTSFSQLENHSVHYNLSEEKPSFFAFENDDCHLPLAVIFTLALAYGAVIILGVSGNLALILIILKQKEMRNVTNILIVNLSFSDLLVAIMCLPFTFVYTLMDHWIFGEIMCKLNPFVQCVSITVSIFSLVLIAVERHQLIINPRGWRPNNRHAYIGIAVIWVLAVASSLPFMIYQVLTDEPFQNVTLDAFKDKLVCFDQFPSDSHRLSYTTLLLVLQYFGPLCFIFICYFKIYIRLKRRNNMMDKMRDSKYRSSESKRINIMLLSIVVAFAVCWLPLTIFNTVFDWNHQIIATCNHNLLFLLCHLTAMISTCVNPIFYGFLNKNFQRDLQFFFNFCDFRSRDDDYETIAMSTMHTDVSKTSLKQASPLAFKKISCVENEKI

[2] = biological target: T2, Neuropeptide Y receptor type 1 (Rattus norvegicus, UniProt P21555)
T2 sequence (P21555 whole entry): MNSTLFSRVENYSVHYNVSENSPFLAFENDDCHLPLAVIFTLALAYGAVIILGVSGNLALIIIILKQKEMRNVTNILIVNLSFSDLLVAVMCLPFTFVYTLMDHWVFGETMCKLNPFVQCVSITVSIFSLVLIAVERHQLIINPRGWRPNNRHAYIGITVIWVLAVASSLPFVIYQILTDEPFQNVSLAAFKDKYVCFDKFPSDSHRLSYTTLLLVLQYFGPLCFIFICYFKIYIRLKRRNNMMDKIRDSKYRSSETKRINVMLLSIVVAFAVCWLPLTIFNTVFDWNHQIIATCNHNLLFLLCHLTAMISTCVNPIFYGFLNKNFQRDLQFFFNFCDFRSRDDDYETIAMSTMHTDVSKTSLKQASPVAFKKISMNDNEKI

Ki [1] [nM] | Ki [2] [nM] | Molecule
0.8 | 1.3 | CN(C)CC1CCC(CN=C(N)c2ccc(CC(NC(=O)C(Cc3ccccc3)NS(=O)(=O)c3ccc4ccccc4c3)C(=O)N3CCCC3)cc2)CC1 (stereo not given) [CAS_5312150]
2.4 | 1.4 | H-INPIYRLRY-NH2 [NPY 28-36, [P30, Y32, L34]]
4.9 |  | N=C(N)NCCCC(NC(=O)C(c1ccccc1)c1ccccc1)C(=O)NCc1ccc(O)cc1 (stereo not given) [NSC_5311023]
